Measured values taken from ChEMBL document CHEMBL1201862, “PubChem BioAssay data set” (2004).
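All cell lines were grown in 96-well plates and treated with compound for 48 hours. GI50 = concentration required for 50% inhibition of growth.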 Activity calls are given as the source filed them. No stated cut-off is given here; in the data, active = GI50 up to about 1.1 µM and inactive = higher.

Key:
Assay in all cases: NCI tumour cell line growth inhibition, 48 h
SR = system: SR
CCRF-CEM = system: CCRF-CEM
SNB-19 = system: SNB-19
SK-MEL-28 = system: SK-MEL-28
HL-60 = system: HL-60
RXF 393 = system: RXF 393
OVCAR-5 = system: OVCAR-5
SK-MEL-2 = system: SK-MEL-2
SN12C = system: SN12C
NCI-H460 = system: NCI-H460
K562 = system: K562
UACC-62 = system: UACC-62
M14 = system: M14
U-251 = system: U-251
HCC 2998 = system: HCC 2998
SK-OV-3 = system: SK-OV-3

Measured: GI50

O=C1NC2(C=Cc3c(ccc4ccccc34)O2)Oc2ccccc21 (stereo not given)
inactive: SR 5.15 µM | CCRF-CEM 3.95 µM | SNB-19 20.7 µM | SK-MEL-28 15.6 µM | HL-60 4.81 µM | RXF 393 14.3 µM | OVCAR-5 36.6 µM | SK-MEL-2 13.2 µM | SN12C 17.4 µM | NCI-H460 27.2 µM | K562 3.58 µM | UACC-62 19.2 µM | M14 31 µM | U-251 15 µM

O=C1CCC(=O)c2ccccc2N1
inactive: CCRF-CEM > 100 µM | SNB-19 > 100 µM | HCC 2998 > 100 µM | SK-MEL-28 > 100 µM | HL-60 > 100 µM | SK-OV-3 > 100 µM | RXF 393 > 100 µM | OVCAR-5 > 100 µM | SK-MEL-2 > 100 µM | SN12C > 100 µM | NCI-H460 > 100 µM | K562 > 100 µM | M14 > 100 µM | U-251 > 100 µM

CCc1ccccc1NC(=O)C(=O)C(C(=O)c1ccc(OC)cc1)c1ccc(OC)cc1 (stereo not given)
inactive: CCRF-CEM > 100 µM | SNB-19 > 100 µM | HCC 2998 > 100 µM | HL-60 > 100 µM | SK-OV-3 > 100 µM | OVCAR-5 > 100 µM | SK-MEL-2 > 100 µM | SN12C > 100 µM | NCI-H460 > 100 µM | K562 > 100 µM | UACC-62 > 100 µM | M14 > 100 µM | U-251 > 100 µM

O=C(NCCCCCCCCNC(=O)c1cnc2ccccc2n1)c1cnc2ccccc2n1
inactive: SR > 100 µM | CCRF-CEM > 100 µM | SNB-19 > 100 µM | HL-60 > 100 µM | SK-OV-3 > 100 µM | RXF 393 > 100 µM | OVCAR-5 > 100 µM | SK-MEL-2 > 100 µM | SN12C > 100 µM | NCI-H460 > 100 µM | K562 > 100 µM | UACC-62 > 100 µM | M14 > 100 µM | U-251 > 100 µM

Cc1nc2ccccc2c(=O)n1-c1ccccc1F
inactive: CCRF-CEM > 100 µM | SNB-19 > 100 µM | HCC 2998 > 100 µM | SK-MEL-28 > 100 µM | HL-60 > 100 µM | SK-OV-3 > 100 µM | RXF 393 > 100 µM | OVCAR-5 > 100 µM | SK-MEL-2 > 100 µM | SN12C > 100 µM | NCI-H460 > 100 µM | K562 > 100 µM | UACC-62 > 100 µM | M14 > 100 µM | U-251 > 100 µM

CN(OC(=O)CC(=O)c1ccccc1)C(=O)Cc1ccccc1
inactive: SR > 100 µM | CCRF-CEM > 100 µM | SNB-19 > 100 µM | HL-60 > 100 µM | SK-OV-3 > 100 µM | OVCAR-5 > 100 µM | SK-MEL-2 > 100 µM | SN12C > 100 µM | NCI-H460 > 100 µM | UACC-62 > 100 µM | M14 > 100 µM | U-251 > 100 µM

O=P(O)(OCC(O)O)OCC(O)O
inactive: CCRF-CEM > 100 µM | SNB-19 > 100 µM | HCC 2998 > 100 µM | SK-MEL-28 > 100 µM | HL-60 > 100 µM | SK-OV-3 > 100 µM | RXF 393 > 100 µM | OVCAR-5 > 100 µM | SK-MEL-2 > 100 µM | NCI-H460 > 100 µM | K562 > 100 µM | U-251 > 100 µM

C=C(CO)CC(O)c1cc(OC)ccc1OC (stereo not given)
inactive: CCRF-CEM > 100 µM | SNB-19 > 100 µM | HCC 2998 > 100 µM | SK-MEL-28 > 100 µM | HL-60 > 100 µM | SK-OV-3 > 100 µM | RXF 393 > 100 µM | OVCAR-5 > 100 µM | SK-MEL-2 > 100 µM | SN12C > 100 µM | NCI-H460 > 100 µM | K562 > 100 µM | UACC-62 > 100 µM | M14 > 100 µM | U-251 > 100 µM

C=C(C)CCOC(c1ccccc1)(c1ccccc1)c1ccccc1
inactive: CCRF-CEM 61.4 µM | SNB-19 > 100 µM | HCC 2998 25.6 µM | SK-MEL-28 42.7 µM | HL-60 31.5 µM | SK-OV-3 > 100 µM | RXF 393 18.5 µM | OVCAR-5 > 100 µM | SN12C 69 µM | NCI-H460 29.1 µM | K562 > 100 µM | UACC-62 40.1 µM | M14 32.8 µM | U-251 50 µM

CN(C)c1ccc(/C=C2\Cc3ccccc3C2=O)cc1Br
inactive: CCRF-CEM 34.1 µM | SNB-19 > 100 µM | HCC 2998 > 100 µM | SK-MEL-28 39 µM | SK-OV-3 > 100 µM | OVCAR-5 79.1 µM | SK-MEL-2 40.6 µM | SN12C 51.5 µM | NCI-H460 53.6 µM | K562 33 µM | UACC-62 59.8 µM | M14 54.6 µM | U-251 53.3 µM

COC(=O)OCC1OC(N2C(=O)NC(=O)C(Br)C2N=[N+]=[N-])CC1OC(=O)OC (stereo not given)
inactive: CCRF-CEM > 100 µM | SNB-19 > 100 µM | HCC 2998 > 100 µM | SK-MEL-28 > 100 µM | SK-OV-3 > 100 µM | RXF 393 > 100 µM | OVCAR-5 > 100 µM | SN12C > 100 µM | NCI-H460 > 100 µM | UACC-62 > 100 µM | M14 > 100 µM | U-251 > 100 µM

COc1ccc2c(c1)[n+]([O-])c(C(=O)C/C(=N/NC(=O)C[N+](C)(C)C)C(=O)Nc1cccc(C)c1C)c(C)[n+]2[O-]
inactive: SNB-19 > 100 µM | HCC 2998 > 100 µM | SK-MEL-28 > 100 µM | SK-OV-3 > 100 µM | RXF 393 > 100 µM | OVCAR-5 67.1 µM | SK-MEL-2 > 100 µM | SN12C > 100 µM | NCI-H460 > 100 µM | K562 > 100 µM | UACC-62 > 100 µM | M14 > 100 µM | U-251 > 100 µM

Cn1c(=O)c2c(ncn2CCCCn2ccnc2[N+](=O)[O-])n(C)c1=O
inactive: SR > 100 µM | CCRF-CEM > 100 µM | SNB-19 > 100 µM | SK-MEL-28 > 100 µM | HL-60 > 100 µM | RXF 393 > 100 µM | OVCAR-5 > 100 µM | SK-MEL-2 > 100 µM | SN12C > 100 µM | NCI-H460 > 100 µM | K562 > 100 µM | UACC-62 > 100 µM | M14 > 100 µM | U-251 > 100 µM

CCCCCCCCCCCCCCCCCC[N+](C)(C)Cc1ccc(C[N+](C)(C)CCCCCCCCCCCCCCCCCC)cc1
inactive: SR 2.39 µM | CCRF-CEM 16.9 µM | SNB-19 14.1 µM | HCC 2998 26.2 µM | SK-MEL-28 18.1 µM | SK-OV-3 26.6 µM | RXF 393 2.71 µM | OVCAR-5 32.9 µM | SK-MEL-2 24.1 µM | SN12C 10.9 µM | NCI-H460 17.6 µM | K562 45.1 µM | UACC-62 21.9 µM | M14 17.3 µM | U-251 7.98 µM
